Results taken from publication PMC3820767, “Turning Defense into Offense: Defensin Mimetics as Novel Antibiotics Targeting Lipid II” (PLoS Pathogens, 2013).

Tests used:
[1] = NMR interaction with Lipid II; format: binding; details: 1D proton chemical shift changes on addition to 3-Lipid II
Method: The NMR samples consisted of 0.15 mM Lipid II, 0.15 mM BAS00127538 compound, or 0.15 mM Lipid II+0.15 mM BAS00127538 compound. All samples were dissolved in 90% double distilled H20+10% DMSO, incubated for 30 minutes, freeze-dried, and then dissolved in 300 µL of d6-DMSO. NMR experiments were carried out at 25°C on an 800 MHz Bruker Avance NMR spectrometer (800.27 MHz for protons) equipped with a pulse-field gradient unit, four frequency channels, and a triple resonance TXI cryoprobe (Bruker Biospin, Billerica, MA). 1D proton experiments were collected to probe for chemical shift changes and 2D TOCSY (30, 60, and 90 msec spinlock times), 2D NOESY (150 and 300 msec mixing times), and natural abundance ^13C-HSQC experiments were collected to determine proton and carbon chemical shift assignments.

[2] = Cytotoxicity by MTT assay; format: cell-based, human; details: human, Jurkat cells; concentration resulting in 50% cell survival, MTT, 4 h; read-out: Cytotoxicity (C50%) Jurkat
human red blood cells = assay: Red Blood Cell (RBC) lysis; format: cell-based; details: human RBCs, 30 min, room temperature, up to 16× MIC
Method: The method described by Stasiuk et al. was followed in general. Defibrinated human blood (Valley BioMedical) was washed three times with buffer (10 mM Tris-HCl, pH 7.4, 0.9% NaCl) and resuspended to a final concentration of 3% RBCs immediately prior to performing the assay. One hundred eighty microliters of RBCs were added to 1020 µl buffer containing various concentrations of the investigational compound. […] DMSO alone (5% final concentration) served as the negative control to subtract the background, while a reaction with water substituted for buffer served as a positive control that completely lyses the RBCs. […] Incubation of compounds and RBCs proceeded for 30 minutes at room temperature, followed by centrifugation at 1,300× g for 5 minutes to pellet the RBCs. Finally, 300 µl of the supernatant was removed to a 96-well plate and the released hemoglobin was measured at A540 using a SpectraMax (Molecular Dynamics) plate reader. Prism (GraphPad) software was used for data analysis. Results were expressed as percent lysis compared to treatment of RBCs with deionized water, which completely ruptures the membrane. Analyses were performed by Micromyx, LLC (Kalamazoo, Michigan).

[3] = Surface Plasmon Resonance binding to immobilized 3-Lipid II; details: SPR; for Binding on Lipid II?: Table S3, initial determination at 10 µM
Procedure, shortened: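 Binding was measured by Surface Plasmon Resonance on a BIAcore T100 instrument at 25°C. Peptides were injected over the sensor flow-cells at 30 µl/min in running buffer of 10 mM HEPES, 150 mM NaCl, 0.05% surfactant P20, pH 7.4 (±3 mM EDTA) with 10% DMSO. Control flow-cell signals were subtracted, surfaces were regenerated with 50 mM NaOH, and isotherms were fitted with BIAcore software.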

[4] = tested on: Streptococcus pneumonia (PRSP) MMX884; assay: Broth microdilution susceptibility testing (CLSI); format: cell-based, Streptococcus pneumoniae; details: Streptococcus pneumoniae, PRSP, read-out: MIC Streptococcus pneumonia (PRSP) 884-NA
Method: (§1) The antibacterial activity of defensin mimetics against Staphylococcus aureus ATCC 29213 and Escherichia coli 25922 was carried out in a 96-well turbidimetric assay essentially as described previously with the following modifications: bacteria were exposed for 30 min to compounds in 10 mM phosphate buffer containing 5% DMSO prior to addition of 2× Muller-Hinton medium. Bacterial growth was monitored for 12 hours and data were analyzed as described. Determination of MICs was performed by Micromyx, LLC (Kalamazoo, Michigan) according to CLSI standards.

[5] = tested on: Streptococcus pneumoniae MMX1195-ATCC 49619; assay: Broth microdilution susceptibility testing (CLSI); format: cell-based; details: Streptococcus pneumoniae, ATCC49619, read-out: MIC Streptococcus pneumoniae 1195-49619
Method: as §1

[6] = tested on: Enterococcus faecalis (VRE) MMX848; assay: Broth microdilution susceptibility testing (CLSI); format: cell-based; details: Enterococcus faecalis, VRE, read-out: MIC Enterococcus faecalis (VRE) 848-NA
Method: as §1

[7] = tested on: Staphylococcus aureus MMX100-ATCC 29213; assay: Broth microdilution susceptibility testing (CLSI); format: cell-based; details: Staphylococcus aureus, ATCC29213, read-out: MIC Staphylococcus aureus 100-29213
Method: as §1

[8] = tested on: Enterococcus faecalis MMX101-ATCC 29212; assay: Broth microdilution susceptibility testing (CLSI); format: cell-based; details: Enterococcus faecalis, ATCC29212, read-out: MIC Enterococcus faecalis 101-29212
Method: as §1

[9] = tested on: Pseudomonas aeruginosa MMX103-ATCC 27853; assay: Broth microdilution susceptibility testing (CLSI); format: cell-based; details: Pseudomonas aeruginosa, ATCC27853, read-out: MIC Pseudomonas aeruginosa 103-27853
Method: as §1

[10] = tested on: Staphylococcus aureus (MRSA) MMX757; assay: Broth microdilution susceptibility testing (CLSI); format: cell-based; details: Staphylococcus aureus, MRSA, read-out: MIC Staphylococcus aureus (MRSA) 757-NA
Method: as §1

[11] = tested on: Escherichia coli MMX102-ATCC 25922; assay: Broth microdilution susceptibility testing (CLSI); format: cell-based; details: for MIC: Escherichia coli, ATCC25922, read-out: MIC Escherichia coli 102-25922
Method: as §1

[12] = tested on: Escherichia coli ATCC 25922; assay: Antibacterial killing, 96-well turbidimetric (modified vCC) assay; format: cell-based; details: for active against E.coli (IC100%): Table S3, concentration at which 100% killing occurred, no bacterial regrowth, No = not active; for Bacterial Killing E. coli: concentration resulting in 100% killing after 30 min exposure, modified vCC assay
Procedure, shortened: (§2)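 Bacteria (E. coli, S. aureus) are first held with test compound in 10 mM phosphate buffer, 5% DMSO, for 30 min. Double-strength Mueller-Hinton medium is then added and turbidity tracked for 12 hours. MICs against pneumococci use the CLSI procedure.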

[13] = tested on: Staphylococcus aureus ATCC 29213; assay: as above; format: cell-based; details: concentration resulting in 100% killing after 30 min exposure, modified vCC assay
Procedure, shortened: as §2

LUV leakage assay = assay: LUV leakage assay
Method: Large unilamellar vesicles were prepared by the extrusion technique. Vesicles were made of Di-Palmoyl-Phosphatidyl Choline (DPPC, Avanti Polar Lipids) with or without 0.1 mol % Lipid II. Vesicles were prepared with 50 mM rhodamine, washed with saline solution and purified by G25 Sephadex column (GE healthcare). Compounds were diluted in saline solution in 96-well plate format and vesicles were added to each well. The increase of fluorescence intensity was measured at 612 nm (excitation at 544 nm) on a Molecular Dynamics spectrophotometer at 20 °C. Compound-induced leakage was expressed relative to the total amount of rhodamine released after lysis of the vesicles by addition of 10 µl of 20% Triton X-100.

Row | lysis of red blood cells (human red blood cells) | Binding on Lipid II? [3] | Kd ([3]; immobilized 3-Lipid II) | MIC [4] | MIC [5] | MIC [6] | MIC [7] | MIC [8] | MIC [9] | MIC [10] | MIC Escherichia coli 102-25922 [11] | MIC [11] | Structure (SMILES) | interaction with Lipid II by NMR [1] | IC50 at 4 h [2] | active against E.coli (IC100%) [12] | Bacterial Killing E. coli [12] | Bacterial Killing S. aureus [13] | leakage of LUVs (LUV leakage assay; 8 µg/ml (16× MIC for S. aureus)) | effect of Lipid II on compound-induced lysis of LUVs (LUV leakage assay; LUVs with vs without Lipid II) | membrane rupture in LUVs (LUV leakage assay; LUVs with or without Lipid II)
1 | does not induce lysis of red blood cells | Yes | 1.71 µM | 8 µg/mL | 8 µg/mL | 1 µg/mL | 0.5 µg/mL | 1 µg/mL | > 8 µg/mL | 0.5 µg/mL | 4 µg/mL | 4 µg/mL | CN1/C(=C/C=C/c2cc(-c3ccccc3)cc(-c3ccccc3)[o+]2)C(C)(C)c2ccccc21 [BAS00127538, 2,4-diphenyl-6-[(1E)-3-[(2E)-1,3,3-trimethyl-2,3-dihydro-1H-indol-2-ylidene]prop-1-en-1-yl]-1$l^4-pyran-1-ylium] | found to interact | 14.5 µM | 7,8 µM | 7.8 µM | 0.244 µM | significant leakage | reduced by the presence of Lipid II | 
2 | significant membrane rupture | No |  | > 8 µg/mL | > 8 µg/mL | 2 µg/mL | 0.25 µg/mL | 2 µg/mL | > 16 µg/mL | 0.5 µg/mL |  | > 16 µg/mL | CN(C)c1ccc(/C=C/c2cc(-c3ccccc3)[o+]c(-c3ccccc3)c2)cc1 [Compound 1499-1221] | could not be confirmed | 18.6 µM | 125 µM | 125 µM | 0.031 µM |  |  | significant membrane rupture in LUVs irrespective of Lipid II
